Values quoted from earlier work in PMC3203620 (The Journal of Organic Chemistry, 2011).

Columns and labels:
Mt = conditions: due to poor uptake
[1] = test system: Plasmodium falciparum DXR

O=CN(O)CCCP(=O)(O)O [Compound 1, fosmidomycin]
activity in vivo in P. vinckei infected mice (P. vinckei): potent inhibitor
activity on Mt at the whole cell level (Mt): inactive
inhibition of Plasmodium falciparum DXR in vitro [1]: potent inhibitor
pharmacokinetic properties: poor pharmacokinetic properties
